“Also recorded” adds a separate entry of the source. Where two headings read alike, the source gives them in different places.
Assays:
[1] = HEK293T cytotoxicity counterscreen, luminescent ATP viability assay; details: human, HEK293T cells
Procedure: (§1) Compounds were screened at 5 μM with metronidazole (40 μM) as an inhibitor control and dimethyl sulfoxide (DMSO) as a neutral control. […] These primary hits were immediately assayed for reconfirmation and mammalian cytotoxicity against HEK293T cells in an 8-point dose-response format.
(§2) Experimental details for the assays were described previously ([50]). […] Assays were performed as previously reported ([51]).
(§3) Relative luminescence unit (RLU) values were analyzed in Genedata Screener (v13.0-Standard). RLU values were normalized to neutral controls minus inhibitors (DMSO-treated wells minus metronidazole-treated wells). For single-point primary assay plates, an additional run-wise median correction was applied to reduce screen artifacts, whereas no corrections were applied to triplicate dose-response plates. For the mammalian cytotoxicity assays, RLU values were uploaded into Genedata Screener, and the data were normalized to those for DMSO-treated wells minus puromycin-treated wells.

[2] = Allometric scaling of efficacious mouse doses to human-equivalent dose; details: 150 mg human dose (2.6 to 1.9 mg/kg) versus predicted human efficacious dose
Procedure: Its chemical synthesis and safety profiles and a partial analysis of its pharmacokinetic properties have been described previously ([18], [43]). […] Given that the average adult weight worldwide ranges from 57.7 kg in Asia to 80.7 kg in North America ([46]), a 150 mg dose equates to 2.6 to 1.9 mg/kg. […]. This leaves a possible safety window of 4.6 to 13 times the efficacious dose, depending on the dose needed and the weight of the adult patient. Since the equivalent human efficacious dose (based on the murine efficacy data) is below the clinical trial threshold and the drug may not necessitate more than 7 daily doses, it could be speculated that all previously obtained good laboratory practices (GLP) toxicological data associated with the Phase I clinical trials remain relevant and may not need to be repeated. […] Reduced cost of development should have a direct impact on the cost of goods for the target population. This is certainly true for G. lamblia.

[3] = tested on: G. lamblia WB6 (assemblage A); test: G. lamblia WB6 cell growth inhibition assay; type: cell-based; details: Giardia duodenalis; assemblage A; read-out: EC50 against G. lamblia strain WB6
[4] = CRL-8155 cytotoxicity, resazurin-based viability assay; type: cell-based; details: human, CRL-8155 lymphocytic cells; read-out: CC50 against CRL-8155 cells
Procedure: as §2

[5] = HepG2 cytotoxicity, resazurin-based viability assay; type: cell-based; details: human, HepG2 cells; read-out: CC50 against HepG2 cells
Procedure: as §2

[6] = tested on: metronidazole-resistant 713-M3 strain; test: Metronidazole-resistant G. lamblia 713-M3 cell growth inhibition assay; type: cell-based; details: Giardia duodenalis, read-out: EC50 against G. lamblia strain 713-M3
[7] = parameters: method as in doi:10.1016/j.jtho.2016.11.1668; details: adults; >150 mg daily oral doses over 7 days; cited from earlier work
G. lamblia CBG99 = details: mice
Procedure: The method relies on a stable constitutive reporter, CBG99, that correlates with total parasite load.
In vitro reconfirmation and expanded tests against EGFR-TKIs using the G. lamblia CBG99 strain were performed as previously described ([11]). […] The PK studies were performed in groups of 3 mice per compound. […] All animal experiments were approved by the Institutional Animal Care and Use Committees at the University of Washington.

[8] = tested on: Giardia lamblia GS clone H7; test: G. lamblia GS clone H7 trophozoite growth, ATP-based bioluminescence assay (BacTiter-Glo), 1,536-well; type: cell-based; details: Giardia duodenalis
Procedure: as §1
The primary screen was conducted at 5 μM. […] All source plates were 384-well acoustic, transfer-compatible plates with compounds prediluted in DMSO at either 2 mM or 10 mM. […] Primary screening was done with a single replicate, whereas dose-response testing was carried out in triplicate.
To prevent attachment to the bottle and tubing of the dispenser cassette, the bottle containing the culture was kept on ice throughout the dispensing process. […] The bags were heat sealed and the anaerobic generator was activated according to the manufacturer’s instructions. […] Luminescence was read on a ViewLux uHTS microplate imager (PerkinElmer) with medium-sensitivity luminescence at 30 s of exposure.
as §3

[9] = Mouse pharmacokinetics, oral gavage, plasma LC-MS/MS; type: in vivo; details: for half-life: read-out: average half-life (t1/2); for plasma level: 1 mg/kg QD
[10] = Clinical evaluation of overall health of mice in PK and efficacy studies; details: all mice used for in vivo PK and efficacy studies
[11] = mouse, single oral dose 5 mg/kg
[12] = mouse, single oral dose 20 mg/kg
[13] = mouse, single oral dose 50 mg/kg

With `C=CC(=O)N[C@@H]1CN(c2nc(Nc3cn(C)nc3OC)c3ncn(C)c3n2)C[C@H]1F` [Mavelertinib, N-((3R,4R)-4-fluoro-1–(6-((3-methoxy-1-methyl-1H-pyrazol-4-yl)amino)-9-methyl-9H-purin-2-yl)pyrrolidine-3-yl)acrylamide] the CC50 at 72 h [1] was > 25 µM, the possible safety window [2] was 4.6 to 13 times the efficacious dose and the EC50 [3] was 0.27 ± 0.17 µM. The CC50 [4] was > 80 µM, the CC50 [5] was > 80 µM and the EC50 [6] was 0.07 ± 0.02 µM. The “most common adverse events” value [7] was “diarrhea and skin toxicities”, the “clearance of infection (luminescence signal)” value (G. lamblia CBG99; 2.5 mg/kg QD for 2 days) was “one of four mice remained infected” and the “clearance of infection (luminescence signal)” value (G. lamblia CBG99; 5 mg/kg QD for 2 days, 5 mg/kg) was “cleared the infection below the background signal”. For the same molecule, the “clearance of infection (luminescence signal)” value (G. lamblia CBG99; 5 mg/kg QD for 2 days, listed as mavelertinib, 5 mg/kg) was “absence of luminescence signal”, the “clearance of infection (luminescence signal)” value (G. lamblia CBG99; 20 mg/kg QD for 2 days, 20 mg/kg) was “cleared the infection below the background signal” and the “clearance of infection (luminescence signal)” value (G. lamblia CBG99; 20 mg/kg QD for 2 days, listed as mavelertinib, 20 mg/kg) was “absence of luminescence signal”. The “clearance of infection (luminescence signal)” value (G. lamblia CBG99; 50 mg/kg QD for 1 day, dose-response experiment, 50 mg/kg) was “cleared the infection below the background signal”, the “clearance of infection (luminescence signal)” value (G. lamblia CBG99; 50 mg/kg QD for 1 day, dose-response experiment, listed as mavelertinib, 50 mg/kg) was “absence of luminescence signal” and the clearance of infection (G. lamblia CBG99; 50 mg/kg QD for 3 days, data not shown) was “appeared to clear the infection”. The clearance of infection (G. lamblia CBG99; 50 mg/kg QD, 1- and 2-day dosing, remained clear a week after dosing) was “all treated mice were cleared of infection”, the “parasite rebound after treatment” value (G. lamblia CBG99; about 1 week after the last therapeutic dose) was “parasites did not rebound” and the EC50 ([8]; 48 h, 8-point dose response, triplicate, read-out: 48-h Giardia GS clone H7 EC50) was 2.34 ± 0.08 µM. The EC50 ([8]; Table 2, assemblage B, read-out: EC50 against G. lamblia strain GS clone 7) was 2.34 ± 0.08 µM, the half-life ([9]; in vivo, mouse, single oral dose 5 mg/kg) was 3.99 h and the plasma trough levels ([9]; infected mice, all treatment groups, days 6 and 7 postinfection (24 h and 48 h after the first dose)) was “below the limit of quantitation”. For the same molecule, the plasma level ([9]; mouse, 0.5 h postdose, one mouse) was “barely detectable”, the plasma level ([9]; mouse, all time points after 0.5 h) was “below the limit of detection” and the plasma level ([9]; mouse, all time points sampled (Fig. 4 legend)) was “barely detectable”. For the same molecule, the “time at which Cmax was observed (Tmax)” value ([9]; mouse, oral, in all cases (all doses)) was 0.5 h, the “plasma concentration at 24 h postdose” value ([9]; mouse, single dose, all dosage groups) was “cleared from plasma; also recorded: below the detection limit” and the “area under the curve (AUC)” value [9, 11] was 89 µmol·min/L. The clearance [9, 11] was 0.015 L/min, the “area under the curve (AUC)” value [9, 12] was 300 µmol·min/L and the clearance [9, 12] was 0.004 L/min. The “area under the curve (AUC)” value [9, 13] was 812 µmol·min/L, the clearance [9, 13] was 0.0016 L/min and the Cmax ([9]; plasma, mouse, single oral dose 5 mg/kg, read-out: maximum plasma concentration (Cmax)) was 0.63 µM. For the same molecule, the half-life ([9]; plasma, mouse, single oral dose 20 mg/kg) was 2.91 h, the Cmax ([9]; plasma, mouse, single oral dose 20 mg/kg, read-out: maximum plasma concentration (Cmax)) was 3.5 µM and the half-life ([9]; plasma, mouse, single oral dose 50 mg/kg) was 2.09 h. The Cmax ([9]; plasma, mouse, single oral dose 50 mg/kg, read-out: average maximum plasma concentration (Cmax)) was 9.3 µM and the observable toxicity [10] was “no observable mavelertinib-induced toxicology potentials”.
